Results as given in patent publication US7709475B2, “Selective inhibitors against Cdk4 and Cdk6 having aminothiazole skeleton” (Banyu Pharmaceutical Co., Ltd., priority 2004, dated 2010).

Key:
cyclin D2-Cdk4 = target: T1, cyclin D2-Cdk4 (Homo sapiens, UniProt P11802); test: Cdk4 inhibitory action: cyclin D2-Cdk4 kinase activity, 33P-ATP, RB peptide substrate; format: biochemical; conditions: cyclin D2-Cdk4, 50 μM ATP
T1 construct: made in house; host or cells: insect cell Sf9 (baculovirus)
From the text: (§1) First, the cDNA of Cdk4, and the cDNA of a fusion protein of cyclin D2, an activating factor of Cdk4, and glutathione S-transferase, were integrated into a baculovirus expression vector to prepare a recombinant baculovirus. This was co-transfected into insect cell Sf9 to express an active complex of the cyclin D2/glutathione S-transferase fusion protein-Cdk4 at a high level. The cells were recovered and solubilized, then the active complex was adsorbed onto Glutathione Sepharose, and a cyclin D2-Cdk4 complex was recovered using Precision Protease and was purified by HPLC column chromatography [EMBO J., Vol. 15, 7060-7069 (1996)].
For the measurement of the activity of cyclin D2-Cdk4, a synthetic peptide (Arg-Pro-Pro-Thr-Leu-Ser-Pro-Ile-Pro-His-Ile-Pro-Arg) corresponding to amino acid residue No. 775-787 of RB protein was used as the substrate [EMBO J., Vol. 15, 7060-7069 (1996)].
The reaction was performed by partially modifying the method of Kitagawa et al. [Oncogene, Vol. 7, 1067-1074 (1992)]. The volume of the reaction solution was 21.1 μL, and the composition of the reaction buffer (R buffer) was 20 mM Tris-hydrochloric acid buffer (pH 7.4)/10 mM magnesium chloride/4.5 mM 2-mercaptoethanol/1 mM ethylene glycol bis(β-aminoethyl ether)-N,N,N′,N′-tetraacetic acid (EGTA). To this reaction buffer, purified cyclin D2-Cdk4, 100 μM of the substrate peptide, 50 μM of non-labeled adenosine triphosphate (ATP), and 1 μCi of [γ-33P]-labeled ATP (2000 to 4000 Ci/mmole) were added to react at 30° C. for 45 minutes. Then, 10 μL of 350 mM phosphate buffer was added to the reaction system to terminate the reaction. The substrate peptide was adsorbed onto P81 paper filter on a 96-well plate, and then washed several times with 75 mM phosphate buffer. The radioactivity of the substrate peptide was measured with a liquid scintillation counter. The [γ-33P]-labeled ATP was purchased from Daiichi Pure Chemicals Co., Ltd.
Addition of the test compound to the reaction system was carried out by first preparing a dilution series of solutions of the compound in dimethylsulfoxide (DMSO), and adding 1.1 μL of the dilutions. A control was provided by adding 1.1 μL of DMSO to the reaction system.
A representative compound of the compounds according to the invention was selected, and the IC50 value of this compound for the cyclin D2-Cdk4 activity was determined.

cyclin D2-Cdk6 = target: T2, cyclin D2-Cdk6 (Homo sapiens, UniProt Q00534); test: Cdk6 inhibitory action: cyclin D2-Cdk6 kinase activity; format: biochemical; conditions: for K1/K6, selectivity for Cdk6 against Cdk1: IC50 of Cdk1 divided by IC50 of Cdk6; for K2/K6, selectivity for Cdk6 against Cdk2: IC50 of Cdk2 divided by IC50 of Cdk6; for K5/K6, selectivity for Cdk6 against Cdk5: IC50 of Cdk5 divided by IC50 of Cdk6; for K7/K6, selectivity for Cdk6 against Cdk7: IC50 of Cdk7 divided by IC50 of Cdk6; for K9/K6, selectivity for Cdk6 against Cdk9: IC50 of Cdk9 divided by IC50 of Cdk6; for IC50: cyclin D2-Cdk6, 50 μM ATP
T2 construct: made in house; host or cells: insect cell Sf9 (baculovirus)
T2 sequence (Q00534 whole entry): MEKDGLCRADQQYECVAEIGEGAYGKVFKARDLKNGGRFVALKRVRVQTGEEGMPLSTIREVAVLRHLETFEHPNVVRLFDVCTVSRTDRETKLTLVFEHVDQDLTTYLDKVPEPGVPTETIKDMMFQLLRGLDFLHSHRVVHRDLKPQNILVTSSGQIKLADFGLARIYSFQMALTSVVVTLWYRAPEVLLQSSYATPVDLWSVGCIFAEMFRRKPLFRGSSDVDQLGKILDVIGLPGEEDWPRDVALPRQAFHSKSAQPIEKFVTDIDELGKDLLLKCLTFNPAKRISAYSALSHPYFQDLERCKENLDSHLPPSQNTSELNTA
T2 sequence (P30279 whole entry partner): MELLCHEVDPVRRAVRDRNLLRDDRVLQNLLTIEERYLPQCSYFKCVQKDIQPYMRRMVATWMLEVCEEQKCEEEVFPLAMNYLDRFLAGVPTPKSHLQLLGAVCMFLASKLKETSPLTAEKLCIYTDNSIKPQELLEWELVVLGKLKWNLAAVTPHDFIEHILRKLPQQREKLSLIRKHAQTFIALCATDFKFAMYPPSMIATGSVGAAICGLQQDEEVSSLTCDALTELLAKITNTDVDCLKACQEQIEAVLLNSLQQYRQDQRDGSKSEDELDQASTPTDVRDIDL
From the text: as §1, with “In the same manner as in the case of cyclin D2-Cdk4,” for “First,”, “Cdk6,” for “Cdk4,”, “protein-Cdk6” for “protein-Cdk4”, “D2-Cdk6” for “D2-Cdk4”, “chromatography.” for “chromatography [EMBO J., Vol. 15, 7060-7069 (1996)].”
For the measurement of the activity of cyclin D2-Cdk6, a synthetic peptide (Arg-Pro-Pro-Thr-Leu-Ser-Pro-Ile-Pro-His-Ile-Pro-Arg) was used as the substrate.
The reaction was performed by partially modifying the method of Kitagawa et al. [Oncogene, Vol. 7, 1067-1074 (1992)]. The volume of the reaction solution was 21.1 μL, and to the R buffer, purified cyclin D2-Cdk6, 100 μM of the substrate peptide, 50 μM of non-labeled adenosine triphosphate (ATP), and 1 μCi of [γ-33P]-labeled ATP (2000 to 4000 Ci/mmole) were added to react at 30° C. for 40 minutes. Then, 10 μL of 350 mM phosphate buffer was added to the reaction system to terminate the reaction. The substrate peptide was adsorbed onto P81 paper filter on a 96-well plate, and then washed several times with 75 mM phosphate buffer. The radioactivity of the substrate peptide was measured with a liquid scintillation counter.
Addition of the compound according to the invention to the reaction system was carried out by first preparing a dilution series of solutions of the compound in dimethylsulfoxide (DMSO), and adding 1.1 μL of the dilutions. A control was provided by adding 1.1 μL of DMSO to the reaction system.
A representative compound of the compounds according to the invention was selected, and the IC50 value of this compound for the cyclin D2-Cdk6 activity was determined.

JURKAT = test: Inhibitory action against cell proliferation (WST-8), JURKAT; format: cell-based; conditions: Homo sapiens, 72 h, Jurkat cells, 3 days culture, read-out: concentration for 50% inhibition of cell proliferation (IC50), Jurkat
Method: Clinically isolated cancer cell lines EOL-1, KU812 and JURKAT were cultured in RPMI1640 medium containing 10% fetal calf serum at 37° C. in the presence of 5% CO2 under an atmosphere of saturated steam.
The inhibitory action against cell proliferation was measured by modifying the method of Skehan et al. [J. Natl. Cancer Inst., Vo. 82, 1107-1112 (1990)] according to the method of Ishiyama et al. [Talanta, Vol. 44, 1299 (1997)]. 100 μL each of cell culture medium containing 1×10^3 live cells of EOL-1, KU812 and JURKAT, respectively, was dispensed into each well of a 96-well cell culture dish, and the cells were cultured overnight. On the next day, a dilution series of solutions in DMSO was prepared from a DMSO solution of the compound of each Example. Then, the dilution series of solutions or DMSO only as a control for no drug addition were separately added to the medium for cell culture. Finally, 100 μL each of the culture medium containing either the dilution series of solutions of the compounds or DMSO only, was added to the cells which had been cultured in a 96-well dish, and then the cells were further cultured for 3 days.
After adding 20 μL each of WST-8 (Kishida Chemical Co., Ltd.) to each well and culturing the cells for another 2 hours, the optical densities at 450 nm were measured against a reference wavelength of 650 nm, and were compared with the control group. The results obtained by determining the concentrations for 50% inhibition of cell proliferation (IC50 (nM)) of the compounds of Examples are presented in the following Table 4.

T1 sequence (P11802 whole entry): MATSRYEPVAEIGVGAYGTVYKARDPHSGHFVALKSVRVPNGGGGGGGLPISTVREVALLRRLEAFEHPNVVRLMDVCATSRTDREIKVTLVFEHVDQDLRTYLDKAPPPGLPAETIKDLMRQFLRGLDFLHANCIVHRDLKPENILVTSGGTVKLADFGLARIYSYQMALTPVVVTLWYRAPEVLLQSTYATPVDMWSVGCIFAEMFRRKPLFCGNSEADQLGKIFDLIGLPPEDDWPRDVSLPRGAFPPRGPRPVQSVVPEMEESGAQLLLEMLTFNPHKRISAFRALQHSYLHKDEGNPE
T1 sequence (P30279 whole entry partner): as the sequence (P30279 whole entry partner) above

`Cc1cc(-c2cnc(Nc3cnc(CN4CCN(C)CC4)cn3)s2)nc(OC2CCCCC2)n1` [Example 1, 5-[2-(cyclohexyloxy)-6-methyl-4-pyrimidinyl]-2-[5-(4-methyl-1-piperazinyl)methyl-2-pyrazinyl]amino-1,3-thiazole] was tested, and the IC50 (cyclin D2-Cdk4) was 9.2 nM, the “K1/K6, selectivity for Cdk6 against Cdk1” value (cyclin D2-Cdk6) was 77 and the “K2/K6, selectivity for Cdk6 against Cdk2” value (cyclin D2-Cdk6) was 218. For the same compound, the “K5/K6, selectivity for Cdk6 against Cdk5” value (cyclin D2-Cdk6) was 385, the “K7/K6, selectivity for Cdk6 against Cdk7” value (cyclin D2-Cdk6) was 68 and the “K9/K6, selectivity for Cdk6 against Cdk9” value (cyclin D2-Cdk6) was 321. It also gave an IC50 (cyclin D2-Cdk6) of 7.8 nM and an IC50 (JURKAT) of 230 nM.
In the case of `Cc1cc(-c2cnc(Nc3cnc(CN4CCC(N(C)C)C4)cn3)s2)nc(OC2CCCCC2)n1` (stereo not drawn) [Example 13, 5-[2-(cyclohexyloxy)-6-methyl-4-pyrimidinyl]-2-[5-(3-dimethylamino-1-pyrrolidinyl)methyl-2-pyrazinyl]amino-1,3-thiazole], the IC50 (cyclin D2-Cdk4) is reported as 6 nM, the “K1/K6, selectivity for Cdk6 against Cdk1” value (cyclin D2-Cdk6) is reported as 48 and the “K2/K6, selectivity for Cdk6 against Cdk2” value (cyclin D2-Cdk6) is reported as 65. For the same compound, the “K5/K6, selectivity for Cdk6 against Cdk5” value (cyclin D2-Cdk6) was 200, the “K7/K6, selectivity for Cdk6 against Cdk7” value (cyclin D2-Cdk6) was 28 and the “K9/K6, selectivity for Cdk6 against Cdk9” value (cyclin D2-Cdk6) was 33. For the same compound, the IC50 (cyclin D2-Cdk6) was 13 nM and the IC50 (JURKAT) was 170 nM.
`Cc1cc(-c2cnc(Nc3cnc(CN4CCN(C)CC4)cn3)s2)nc(NC2CCCCC2)n1` [Example 55, 5-[2-(cyclohexylamino)-6-methyl-4-pyrimidinyl]-2-[5-(4-methyl-1-piperazinyl)methyl-2-pyrazinyl]amino-1,3-thiazole] showed an IC50 (cyclin D2-Cdk4) of 3.8 nM and an IC50 (cyclin D2-Cdk6) of 5.1 nM.
For `Cc1cc(-c2cnc(Nc3cnc(CN4CCCC4)cn3)s2)nc(SC2CCCCC2)n1` [Example 93, 5-[2-(cyclohexylthio)-6-methyl-4-pyrimidinyl]-2-[5-(1-pyrrolidinyl)methyl-2-pyrazinyl]amino-1,3-thiazole], the IC50 (cyclin D2-Cdk4) was 4.2 nM and the IC50 (cyclin D2-Cdk6) was 7.3 nM.
`Cc1cc(-c2cnc(Nc3cnc(CN4CCC(N(C)C)C4)cn3)s2)nc(SC2CCCCC2)n1` (stereo not drawn) [Example 94, 5-[2-(cyclohexylthio)-6-methyl-4-pyrimidinyl]-2-[5-(3-dimethylamino-1-pyrrolidinyl)methyl-2-pyrazinyl]amino-1,3-thiazole] showed an IC50 (cyclin D2-Cdk4) of 3.9 nM, an IC50 (cyclin D2-Cdk6) of 16 nM and an IC50 (JURKAT) of 180 nM.
`Cc1cc(-c2cnc(Nc3cnc(CNC(C)C)cn3)s2)nc(SC2CCCCC2)n1` [Example 96, 5-[2-(cyclohexylthio)-6-methyl-4-pyrimidinyl]-2-[5-(isopropylamino)methyl-2-pyrazinyl]amino-1,3-thiazole] was tested, and the IC50 (cyclin D2-Cdk4) was 5.8 nM, the IC50 (cyclin D2-Cdk6) was 9.3 nM and the IC50 (JURKAT) was 140 nM.
For `Cc1cc(-c2cnc(Nc3cnc(CNCCO)cn3)s2)nc(SC2CCCCC2)n1` [Example 99, 5-[2-(cyclohexylthio)-6-methyl-4-pyrimidinyl]-2-[5-(2-hydroxyethylamino)methyl-2-pyrazinyl]amino-1,3-thiazole], the IC50 (cyclin D2-Cdk4) was 6 nM and the IC50 (JURKAT) was 190 nM.
For `Cc1cc(-c2cnc(Nc3cnc(CN4CCN(C)CC4)cn3)s2)nc(Sc2ccccc2Cl)n1` [Example 109, 5-[2-(2-chlorophenylthio)-6-methyl-4-pyrimidinyl]-2-[5-(4-methyl-1-piperazinyl)methyl-2-pyrazinyl]amino-1,3-thiazole], the IC50 (cyclin D2-Cdk4) was 5.7 nM, the IC50 (cyclin D2-Cdk6) was 18 nM and the IC50 (JURKAT) was 110 nM.
In the case of `CC(=O)N1CCN(Cc2ccc(Nc3ncc(-c4cc(C)nc(OC5CCCCC5)n4)s3)nc2)CC1` [Example 125, 5-[2-(cyclohexyloxy)-6-methyl-4-pyrimidinyl]-2-[5-(4-acetyl-1-piperazinyl)methyl-2-pyridyl]amino-1,3-thiazole], the IC50 (cyclin D2-Cdk4) is reported as 9 nM, the IC50 (cyclin D2-Cdk6) is reported as 17 nM and the IC50 (JURKAT) is reported as 260 nM.
In the case of `Cc1cc(-c2cnc(Nc3ccc(CN4CCC[C@H]4CO)cn3)s2)nc(NC2CCCCC2)n1` [Example 137, (2S)-5-[2-(cyclohexylamino)-6-methyl-4-pyrimidinyl]-2-[5-(2-hydroxymethyl-1-pyrrolidinyl)methyl-2-pyridyl]amino-1,3-thiazole], the IC50 (cyclin D2-Cdk4) is reported as 7.2 nM, the “K1/K6, selectivity for Cdk6 against Cdk1” value (cyclin D2-Cdk6) is reported as 57 and the “K2/K6, selectivity for Cdk6 against Cdk2” value (cyclin D2-Cdk6) is reported as 214. For the same compound, the “K5/K6, selectivity for Cdk6 against Cdk5” value (cyclin D2-Cdk6) was 143, the “K7/K6, selectivity for Cdk6 against Cdk7” value (cyclin D2-Cdk6) was 57 and the “K9/K6, selectivity for Cdk6 against Cdk9” value (cyclin D2-Cdk6) was 52. It also gave an IC50 (cyclin D2-Cdk6) of 21 nM and an IC50 (JURKAT) of 250 nM.
